The results in this text go back to patent publication US6432993B1, “Substituted fused heterocyclic compound” (Sankyo Company, Limited, priority 1997, dated 2002).

Values after ≈ are worked out from the molar mass of the structure shown. Where a name gives a salt, the structure may show the parent alone.

The test system of series [1] is KK mice which developed diabetes. The series is described as follows: Hypoglycemic action in diabetic KK mice. Format: in vivo. The following applies: powdery food containing 0.01% test compound for three days, plasma glucose vs control; for inhibition in vivo at 0.01 % in diet: Mus musculus, po, 72 h, read-out: Blood sugar lowering rate (%). The procedure:
The blood sample was collected from the caudal vein of each of KK mice (4-5 month old) which developed diabetes and its blood sugar level was measured. The mice were then classified into groups (4 mice per group) so that they would be equal in the average of the blood sugar levels of the mice. For three days, powdery food (F-1, produced by Funabashi Farm) adjusted to contain the test compound in an amount of 0.01% was administered to mice. The mouse group to which the test compound was administered refers to “the medicine administered group”, while that to which the powdery food free of the test compound was administered refers to “the control”. After three days, the blood sample was collected from the caudal vein of each of the mice and the glucose concentration in the plasma obtained by centrifugal separation was measured by a glucose analyzer (“Glucoroder”, A&T Inc.). The blood-sugar lowering rate was calculated from the following equation:
Blood sugar lowering rate (%)=(average blood sugar level of the control−average blood sugar level of the medicine administered group)×100/the blood sugar level of the control

In series [2] the test system is lipid peroxide production, rat hepatic microsome. The series is described as follows: Anti-lipid-peroxide action: inhibition of lipid peroxide production in rat hepatic microsome. In kind it is biochemical. The conditions noted are these: Wister rat hepatic microsome, ferrous sulfate/cysteine, 37° C. 30 minutes, thiobarbituric acid absorbance 535 nm. The procedure:
Anti-lipid-peroxide Action
The inhibitory effect of the invention compound against the production of lipid peroxide was conducted using rat hepatic microsome.
To 400 μl of a 1:2 mixture of a buffer [a 0.1M aqueous tris(hydroxymethyl)aminomethane solution adjusted to pH 7.4 by hydrochloric acid] and a 0.15M aqueous potassium chloride solution were added 5 μl of a solution of a predetermined concentration of the test compound in dimethyl sulfoxide, and 100 μl of hepatic microsome prepared from Wister rat (10 week old), followed by stirring at 37° C. for 5 minutes. To initiate the reaction of said mixture, 10 μl of a 1:1 mixed solution of a 0.5 mM aqueous solution of ferrous sulfate 7 hydrate and a 50 mM aqueous cysteine solution was added and the resulting mixture was stirred at 37° C. for 30 minutes. 1 ml of a 10% aqueous solution of trichloroacetic acid was added to the reaction mixture to terminate the reaction. The reaction mixture was centrifuged at 3000 rpm at 5° C. for 10 minutes and the supernatant was separated. To 1.0 ml of the supernatant, 1.0 ml of 50% aqueous acetic acid containing 0.67% of thiobarbituric acid was added and the mixture was boiled at 100° C. for 15 minutes. After the resulting mixture was allowed to stand at room temperature for 15 minutes, the absorbance at the wavelength of 535 nm was measured. From the absorbance of the control measured without the test compound and that of the test compounds of a predetermined concentration, an inhibition rate (%) was determined and the 50% inhibition concentration of the test compound against lipid peroxide was determined.

The target of the next series is T1, 5-lipoxygenase (Cavia porcellus, UniProt A0A286X958).
T1 sequence (A0A286X958 1-674): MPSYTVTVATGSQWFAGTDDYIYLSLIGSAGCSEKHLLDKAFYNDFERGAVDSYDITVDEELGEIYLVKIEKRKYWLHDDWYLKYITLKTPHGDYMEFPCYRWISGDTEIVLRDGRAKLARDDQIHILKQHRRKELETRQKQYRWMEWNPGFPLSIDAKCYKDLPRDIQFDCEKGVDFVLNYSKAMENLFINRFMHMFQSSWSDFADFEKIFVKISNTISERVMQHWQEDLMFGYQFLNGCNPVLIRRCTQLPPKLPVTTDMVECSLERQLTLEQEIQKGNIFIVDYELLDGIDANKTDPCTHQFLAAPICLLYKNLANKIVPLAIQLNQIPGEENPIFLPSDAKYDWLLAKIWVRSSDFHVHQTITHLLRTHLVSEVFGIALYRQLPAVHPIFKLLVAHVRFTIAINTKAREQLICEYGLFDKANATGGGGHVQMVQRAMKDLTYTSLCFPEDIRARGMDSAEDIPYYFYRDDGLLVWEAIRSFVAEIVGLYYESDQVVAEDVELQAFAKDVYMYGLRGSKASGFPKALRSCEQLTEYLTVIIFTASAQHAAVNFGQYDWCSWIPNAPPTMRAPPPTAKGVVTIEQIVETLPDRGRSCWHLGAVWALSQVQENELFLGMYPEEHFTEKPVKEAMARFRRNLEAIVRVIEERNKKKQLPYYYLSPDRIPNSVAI
In words: 5-Lipoxygenase inhibitory action (5-HETE formation, guinea pig polymorphonuclear leukocyte enzyme). Format: biochemical. The following applies: 25° C. 5 minutes, 5-HETE by HPLC, read-out: IC50 (50% inhibition concentration against 5-lipoxygenase) (converted). The procedure: 5-Lipoxygenase Inhibitory Action
Into 5 μl of a solution of the test compound in dimethylsulfoxide, 750 μl of a 1/15M phosphate buffer (pH 7.4) which was prepared by dissolving a wrapper of phosphate buffer powder (Yatron) in 10 ml of water, 40 μl of a 30 mM aqueous calcium chloride solution, 50 μl of a 20 mM aqueous GSH (glutathione, reduced form) solution, 50 μl of a 40 mM aqueous ATP (adenosine-5-triphosphate) solution and 100 μl of guinea pig polymorphonuclear leukocyte enzyme were added, followed by stirring at 25° C. for 5 minutes. To initiate the reaction, 5 μl of […] (10 mg/ml ethanol) were added to said mixture and the mixture was stirred at 25° C. for 5 minutes. 50 μl of 2N hydrochloric acid were added to the reaction mixture to terminate the reaction. 2.0 ml of ethyl acetate containing an internal standard substance (internal standard substance: 2 μg/ml of isoamyl paraben) were then added to the reaction mixture. The resulting mixture was extracted for 1 minute by a mixer, followed by centrifugal separation at 3000 rpm for 5 minutes. The ethyl acetate layer was separated, evaporated to dryness under reduced pressure and then dissolved in 200 μl of acetonitrile. By high-performance liquid chromatography, the amount of 5-HETE formed was determined. From the determination of 5-HETE of the control without the test compounds and that of the test compounds, an inhibition rate (%) was found and the 50% inhibition concentration of the test compounds against 5-lipoxygenase was determined.

With `Cn1c(COc2ccc(CC3SC(=O)NC3=O)cc2)nc2ccc(Oc3ccccn3)cc21` (stereo not shown) [Example 6-2, 5-{4-[6-(Pyridin-2-yloxy)-1-methyl-1H-benzimidazol-2-ylmethoxy]benzyl}thiazolidine-2,4-dione], the inhibition in vivo at 0.01 % in diet in series [1] came out at 62.6%. As for `Cn1c(COc2ccc(CC3SC(=O)NC3=O)cc2)nc2ccc(Oc3ccc(NC(=O)c4cccnc4)cc3)cc21` (stereo not shown) [Example 51, 5-{4-[6-(4-Nicotinoylaminophenoxy)-1-methyl-1H-benzimidazole-2-ylmethoxy]benzyl}thiazolidine-2,4-dione], the inhibition in vivo at 0.01 % in diet in series [1] was found to be 63.6%. `Cl.Cn1c(COc2ccc(CC3SC(=O)NC3=O)cc2)nc2ccc(Sc3cc(C(C)(C)C)c(O)c(C(C)(C)C)c3)cc21.Cn1c(COc2ccc(CC3SC(=O)NC3=O)cc2)nc2ccc(Sc3cc(C(C)(C)C)c(O)c(C(C)(C)C)c3)cc21` (stereo not shown) [Example 7-2a, 5-{4-[6-(3,5-Di-t-butyl-4-hydroxyphenylthio)-1-methyl-1H-benzimidazol-2-ylmethoxy]benzyl}thiazolidine-2,4-dione 1/2 hydrochloride]: the “Blood sugar lowering rate (%)” value in series [1] was determined as 71.7%. Besides, the “IC50 (50% inhibition concentration against lipid peroxide)” value in series [2] was 0.65 µg/mL. For `Cn1c(COc2ccc(CC3SC(=O)NC3=O)cc2)nc2ccc(Oc3ccc(O)cc3)cc21` (stereo not shown) [Example 3-2, 5-{4-[6-(4-Hydroxyphenoxy)-1-methyl-1H-benzimidazol-2-ylmethoxy]benzyl}thiazolidine-2,4-dione], the inhibition in vivo at 0.01 % in diet in series [1] was determined as 60.1%.

For the molecule `Cc1cc(Oc2ccc3nc(COc4ccc(CC5SC(=O)NC5=O)cc4)n(C)c3c2)c(Cl)c(C)c1O.Cl` (stereo not shown) [Example 5b, 5-{4-[6-(2-Chloro-4-hydroxy-3,5-dimethylphenoxy)-1-methyl-1H-benzimidazol-2-ylmethoxy]benzyl}thiazolidine-2,4-dione hydrochloride], the IC50 on 5-lipoxygenase is 923 nM. The “IC50 (50% inhibition concentration against lipid peroxide)” value in series [2] was found to be 1.3 µg/mL.

On to `Cn1c(COc2ccc(CC3SC(=O)NC3=O)cc2)nc2ccc(Sc3ccccn3)cc21` (stereo not shown) [Example 13-2b, 5-{4-[1-Methyl-6-(pyridin-2-ylthio)-1H-benzimidazole-2-ylmethoxy]benzyl}thiazolidine-2,4-dione dihydrochloride], for which the inhibition in vivo at 0.01 % in diet in series [1] was 68.1%. For the molecule `Cc1cc(Oc2ccc3nc(COc4ccc(CC5SC(=O)NC5=O)cc4)n(C)c3c2)c(C)c(C)c1O` (stereo not shown) [Example 2-2a, 5-{4-[6-(4-Hydroxy-2,3,5-trimethylphenoxy)-1-methyl-1H-benzimidazol-2-ylmethoxy]benzyl}thiazolidine-2,4-dione], on 5-lipoxygenase, the IC50 is 193 nM. The “IC50 (50% inhibition concentration against lipid peroxide)” value in series [2] was 0.54 µg/mL (≈ 1.04 µM). As for `Cn1c(COc2ccc(CC3SC(=O)NC3=O)cc2)nc2ccc(Oc3ccc(-n4ccnc4)cc3)cc21` (stereo not shown) [Example 19-2, 5-{4-(6-[4-(Imidazole-1-yl)phenoxy]-1-methyl-1H-benzimidazole-2-ylmethoxy)benzyl}thiazolidine-2,4-dione dihydrochloride], the inhibition in vivo at 0.01 % in diet in series [1] amounted to 66.8%. `Cc1cc(Oc2ccc3nc(COc4ccc(CC5SC(=O)NC5=O)cc4)n(C)c3n2)c(C)c(C)c1O` (stereo not shown) [Example 1-2b, 5-{4-[5-(4-Hydroxy-2,3,5-trimethylphenoxy)-3-methyl-3H-imidazo[4,5-b]pyridin-2-ylmethoxy]benzyl}thiazolidine-2,4-dione hydrochloride]: the inhibition in vivo at 0.01 % in diet in series [1] came out at 48.1%. Consider `Cc1cc(Oc2ccc3nc(COc4ccc(CC5SC(=O)NC5=O)cc4)n(C)c3c2)c(C)c(C)c1O` (stereo not shown) [Example 2-2b, 5-{4-[6-(4-Hydroxy-2,3,5-trimethylphenoxy)-1-methyl-1H-benzimidazol-2-ylmethoxy]benzyl}thiazolidine-2,4-dione hydrochloride], for which the inhibition in vivo at 0.01 % in diet in series [1] was 49.2%.

Turning to `Cc1ccc(Sc2ccc3nc(COc4ccc(CC5SC(=O)NC5=O)cc4)n(C)c3c2)cc1` (stereo not shown) [Example 34-2b, 5-{4-[1-Methyl-6-(4-methylthiophenoxy)-1H-benzimidazole-2-ylmethoxy]benzyl}thiazolidine-2,4-dione hydrochloride], in series [1], the inhibition in vivo at 0.01 % in diet was found to be 71.2%. Turning to `Cc1cc(Oc2ccc3nc(COc4ccc(CC5SC(=O)NC5=O)cc4)n(C)c3c2)cc(C)c1O` (stereo not shown) [Example 4-2a, 5-{4-[6-(4-Hydroxy-3,5-dimethylphenoxy)-1-methyl-1H-benzimidazol-2-ylmethoxy]benzyl}thiazolidine-2,4-dione], the inhibition in vivo at 0.01 % in diet in series [1] amounted to 67.5%. In addition, the IC50 on 5-lipoxygenase is 397 nM. Besides, the “IC50 (50% inhibition concentration against lipid peroxide)” value in series [2] is 0.83 µg/mL (≈ 1.65 µM). `Cc1cc(Oc2ccc3nc(COc4ccc(CC5SC(=O)NC5=O)cc4)n(C)c3n2)c(C)c(C)c1O` (stereo not shown) [Example 1-2a, 5-{4-[5-(4-Hydroxy-2,3,5-trimethylphenoxy)-3-methyl-3H-imidazo[4,5-b]pyridin-2-ylmethoxy]benzyl}thiazolidine-2,4-dione]: at 5-lipoxygenase, the IC50 is 1140 nM. In addition, the “IC50 (50% inhibition concentration against lipid peroxide)” value in series [2] came to 0.97 µg/mL (≈ 1.87 µM). For `Cn1c(COc2ccc(CC3SC(=O)NC3=O)cc2)nc2ccc(Oc3ccc(C#N)cc3)cc21` (stereo not shown) [Example 40, 5-{4-[6-(4-Cyanophenoxy)-1-methyl-1H-benzimidazole-2-ylmethoxy]benzyl}thiazolidine-2,4-dione hydrochloride], the inhibition in vivo at 0.01 % in diet in series [1] is 66.4%.

As for `Cc1cc(O)ccc1Oc1ccc2nc(COc3ccc(CC4SC(=O)NC4=O)cc3)n(C)c2c1.Cl` (stereo not shown), the melting point was in the range of 165 to 168 °C. As for `Cc1cc(Oc2ccc3nc(COc4ccc(CC5SC(=O)NC5=O)cc4)n(C)c3c2)cc(C)c1N.Cl.Cl` (stereo not shown) [Example 8-2b, 5-{4-[6-(4-Amino-3,5-dimethylphenoxy)-1-methyl-1H-benzimidazol-2-ylmethoxy]benzyl}thiazolidine-2,4-dione dihydrochloride], the “IC50 (50% inhibition concentration against lipid peroxide)” value in series [2] stood at 3.2 µg/mL.

One may read the melting point as the temperature of the solid-liquid transition.
